Here are results for 4 compounds from US20180352814A1 (priority 2015, published 2018).

Type in all cases: in vivo
Assay [1] has as its system soybean frogeye leaf spot (Cercospora sojina) fungus. Put plainly: Test Example 15: Control Test on Soybean Frogeye Leaf Spot (Cercospora sojina). As to conditions: 200 ppm foliage spray 5 days after inoculation; soybean cultivar TACHINAGAHA
The text has this:
(§1) The non-treatment in Test Examples 5 to 20 means that foliage application of a mixture of a preparation containing the present compound and water was not performed.
Control Test on Soybean Frogeye Leaf Spot (Cercospora sojina)
Each of plastic pots was filled with soil and soybean (cultivar: TACHINAGAHA) was sowed and grown in a greenhouse for 13 days. Thereafter, an aqueous suspension containing spores of soybean frogeye leaf spot (Cercospora sojina) fungus was sprayed to inoculate the spores. After inoculation, the soybean was at first left to stand in a greenhouse at 23° C. in the daytime under high humidity condition for 4 days, and cultivated in a greenhouse at 23° C. for 1 day. Then, the present compound 11 formulated in accordance with the method mentioned in Formulation Example 6 was mixed with water so as to adjust the concentration to 200 ppm, and the mixture was sprayed over stems and leaves of the soybean so that it sufficiently adhered to the surface of the leaves of the soybean. After spraying, the soybean was air-dried and cultivated in a greenhouse at 24° C. during the day and 20° C. at night for 21 days, and then the area of lesion spots was investigated.

Assay [2] relates to tomato late blight fungus (Phytophthora infestans). As to conditions: 500 ppm foliage spray; tomato variety PATIO; inoculated 1 day after spraying.
Assay [3] relates to cucumber powdery mildew fungus (Sphaerotheca fuliginea). Put plainly: Test Example 20: Control Test on Cucumber Powdery Mildew (Sphaerotheca fuliginea). As to conditions: 200 ppm foliage spray; cucumber cultivar SAGAMI HANJIRO; inoculated 1 day after spraying.
Text: as §1
Control Test on Cucumber Powdery Mildew (Sphaerotheca fuliginea)
Each of plastic pots was filled with soil and cucumber (cultivar; SAGAMI HANJIRO) was sowed and grown in a greenhouse for 12 days. Then, the present compound 41 formulated in accordance with the method mentioned in Formulation Example 6 was mixed with water so as to adjust the concentration to 200 ppm, and the mixture was sprayed over stems and leaves of the cucumber so that it sufficiently adhered to the surface of the leaves of the cucumber. After spraying, the […] was air-dried. After the cucumber was left to stand in a greenhouse at 24° C. during the day and 20° C. at night for 1 day, the spores of the cucumber seedling (cultivar; SAGAMI HANJIRO) infected by cucumber powdery mildew fungus were sprinkling-inoculated. After inoculation, the cucumber was cultivated in a greenhouse at 24° C. during the day and 20° C. at night for 8 days, and then the area of lesion spots was investigated.

Assay [4] relates to soybean rust fungus (Phakopsora pachyrhizi). Put plainly: Test Example 10: Control Test on Soybean Rust (Phakopsora pachyrhizi), spraying before inoculation. As to conditions: 200 ppm foliage spray; soybean cultivar KUROSENGOKU; inoculated 4 days after spraying.
Text: as §1
(§2) Control Test on Soybean Rust (Phakopsora pachyrhizi)
Each of plastic pots was filled with soil and soybean (cultivar: KUROSENGOKU) was sowed and grown in a greenhouse for 13 days. Then, the present compound 1 to 9, 11 to 21, 29 to 37, or 44 formulated in accordance with the method mentioned in Formulation Example 6 was mixed with water so as to adjust the concentration to 200 ppm, and the mixture was sprayed over stems and leaves so that it sufficiently adhered to the surface of the leaves of the soybean. After spraying, the soybean was air-dried. After 4 days, an aqueous suspension containing spores of soybean rust fungus was sprayed to inoculate the spores. After inoculation, the soybean was at first left to stand in a greenhouse at 23° C. in the daytime and 20° C. at night under high humidity condition for 1 day, and then cultivated in a greenhouse for 10 days, and the area of lesion spots was investigated. As a result, the area of lesion spots on the soybean treated with the present compound 1 to 9, 11 to 21, 29 to 37, or 44 was 30% or less of that on a non-treated soybean.

Assay [5] shares this test system. Put plainly: Test Example 9: Control Test on Soybean Rust (Phakopsora pachyrhizi), spraying after inoculation. As to conditions: 200 ppm foliage spray 3 days after inoculation; soybean cultivar KUROSENGOKU
Text: as §1, §2
Each of plastic pots was filled with soil and soybean (cultivar: KUROSENGOKU) was sowed and grown in a greenhouse for 10 days. Thereafter, an aqueous suspension containing spores of soybean rust fungus was sprayed to inoculate the spores. After inoculation, the soybean was at first left to stand in a greenhouse at 23° C. in the daytime and 20° C. at night under high humidity condition for 1 day and cultivated in a greenhouse at room temperature for 2 days. Then, the present compound 1 to 9, 11 to 23, 26 to 33, 35 to 41, or 44 formulated in accordance with the method mentioned in Formulation Example 6 was mixed with water so as to adjust the concentration to 200 ppm, and the mixture was sprayed over stems and leaves of the soybean so that it sufficiently adhered to the surface of the leaves of the soybean. After spraying, the soybean was air-dried and cultivated in a greenhouse for 8 days, and then the area of lesion spots was investigated.

Structures are written as SMILES.

On to `COCCN(C)C(=O)Oc1ccc(-c2noc(C(F)(F)F)n2)cc1F` [compound 11], for which the “area of lesion spots on the treated soybean relative to that on a non-treated soybean” value in assay [1] is recorded as at most 30%. `CCOCCNC(=O)Oc1ccc(-c2noc(C(F)(F)F)n2)cc1` [compound 9]: the “area of lesion spots on the treated tomato relative to that on a non-treated tomato” value in assay [2] is reported as at most 30%.

As for `CC1(C(=O)Nc2ccc(-c3noc(C(F)(F)F)n3)cc2)CC1` [compound 41], the “area of lesion spots on the treated cucumber relative to that on a non-treated cucumber” value in assay [3] is at most 30%.

In the case of `O=C(Oc1ccc(-c2noc(C(F)(F)F)n2)cc1)C1CCCCC1` [compound 44], the “area of lesion spots on the treated soybean relative to that on a non-treated soybean” value in assay [4] and in assay [5] was at most 30% throughout.
